Reference: patent publication US20070128217A1 (priority 2003, published 2007)

What was measured:
[1] = test system: antibodies in sera from SARS patients (sera 1a, 1b, 2, 6, 37, 62, London, SARS-yellow, SARS-green); assay type: binding, human; set-up: Binding of serum 6 to linear peptides of protein X1 of SARS-CoV Urbani / Binding of serum 37 to linear peptides of protein X1 of SARS-CoV Urbani / Binding of serum 6 to looped/cyclic peptide (PEPSCAN-ELISA) / Binding of serum 37 to looped/cyclic peptide (PEPSCAN-ELISA) / Binding of serum 37 to looped/cyclic peptides of protein X1 of SARS-CoV Urbani / Binding of serum 6 to linear peptides of protein X2 / Binding of serum 37 to linear peptides of protein X2 / Binding of serum 37 to looped/cyclic peptides of protein X2 of SARS-CoV Urbani / Binding of serum 6 to linear peptides of protein M of SARS-CoV Urbani / Binding of serum 37 to linear peptides of protein M of SARS-CoV Urbani / Binding of serum 6 to looped/cyclic peptides of protein M of SARS-CoV Urbani / Binding of serum 37 to looped/cyclic peptides of protein M of SARS-CoV Urbani / Binding of serum 6 to linear peptides of protein X3 of SARS-CoV Urbani / Binding of serum 37 to linear peptides of protein X3 of SARS-CoV Urbani / Binding of serum 37 to looped/cyclic peptides of protein X3 of SARS-CoV Urbani / Binding of serum 6 to linear peptides of protein X4 of SARS-CoV Urbani / Binding of serum 37 to linear peptides of protein X4 of SARS-CoV Urbani / Binding of serum 37 to looped/cyclic peptides of protein X4 of SARS-CoV Urbani / Binding of serum 6 to linear peptides of protein X5 of SARS-CoV Urbani / Binding of serum 37 to linear peptides of protein X5 of SARS-CoV Urbani / Binding of serum 37 to looped/cyclic peptides of protein X5 of SARS-CoV Urbani / Binding of serum 6 to linear peptides of protein N of SARS-CoV Urbani / Binding of serum 37 to linear peptides of protein N of SARS-CoV Urbani / Binding of serum 6 to linear peptide (PEPSCAN-ELISA) / Binding of serum 1a to looped/cyclic peptides of protein N of SARS-CoV Urbani / Binding of serum 1b to looped/cyclic peptides of protein N of SARS-CoV Urbani / Binding of serum 2 to looped/cyclic peptides of protein N of SARS-CoV Urbani / Binding of serum 6 to looped/cyclic peptides of protein N of SARS-CoV Urbani / Binding of serum 37 to looped/cyclic peptides of protein N of SARS-CoV Urbani / Binding of serum 62 to looped/cyclic peptides of protein N of SARS-CoV Urbani / Binding of serum London to looped/cyclic peptides of protein N of SARS-CoV Urbani / Binding of serum SARS-green to looped/cyclic peptides of protein N of SARS-CoV Urbani: unit not given here
[2] = test system: control sera (pooled serum of ten healthy LUMC hospital workers; commercial negative donor pooled serum from the Dutch bloodbank); assay type: binding, human; set-up: Binding of Control serum LUMC to linear peptides / Binding of Control serum Blood-bank to linear peptides / Binding of Control serum LUMC to looped peptides / Binding of Control Serum Blood-Bank to Looped peptides / Binding of Control serum LUMC to linear peptides of the protein M of SARS-CoV Urbani / Binding of Control serum Blood-bank to linear peptides of the protein M of SARS-CoV Urbani / Binding of Control serum LUMC to looped peptides of the protein M of SARS-CoV Urbani / Binding of Control Serum Blood-Bank to Looped peptides of the protein M of SARS-CoV Urbani: unit not given here
[3] = test system: rabbit serum obtained by immunizing a rabbit with the SARS-CoV strain Frankfurt 1; assay type: binding; set-up: Binding of a rabbit serum to linear peptides / Binding of a rabbit serum to looped peptides / Rabbit serum linear peptides / Rabbit serum looped peptides / Binding of a rabbit serum to linear peptides of protein N of SARS-CoV Urbani (Rabbit serum linear peptides) / Binding of a rabbit serum to looped/cyclic peptides of protein N of SARS-CoV Urbani (Rabbit serum looped peptides): unit not given here

In the case of VVHGYFTEVYYQLES, the “Binding of serum 1a to linear peptides of protein X1 of SARS-CoV Urbani” value [1] is reported as 0.8, the “Binding of serum 1a to looped/cyclic peptides of protein X1 of SARS-CoV Urbani” value [1] is reported as 0.6 and the “Binding of serum 1b to linear peptides of protein X1 of SARS-CoV Urbani” value [1] is reported as 0.7. For the same sequence, the “Binding of serum 1b to looped/cyclic peptides of protein X1 of SARS-CoV Urbani” value [1] was 0.4, the “Binding of serum 2 to linear peptides of protein X1 of SARS-CoV Urbani” value [1] was 0.4 and the “Binding of serum 2 to looped/cyclic peptides of protein X1 of SARS-CoV Urbani” value [1] was 0.4. For the same sequence, the “Binding of serum 6 to linear peptides of protein X1 of SARS-CoV Urbani” value [1] was 0.3, the “Binding of serum 6 to looped/cyclic peptides of protein X1 of SARS-CoV Urbani” value [1] was 0.3 and the “Binding of serum 37 to linear peptides of protein X1 of SARS-CoV Urbani” value [1] was 0.5. For the same sequence, the “Binding of serum 37 to looped/cyclic peptides of protein X1 of SARS-CoV Urbani” value [1] was 0.6, the “Binding of serum 62 to linear peptides of protein X1 of SARS-CoV Urbani” value [1] was 0.4 and the “Binding of serum 62 to looped/cyclic peptides of protein X1 of SARS-CoV Urbani” value [1] was 0.5. For the same sequence, the “Binding of serum London to linear peptides of protein X1 of SARS-CoV Urbani” value [1] was 0.2, the “Binding of serum London to looped/cyclic peptides of protein X1 of SARS-CoV Urbani” value [1] was 0.2 and the “Binding of serum SARS-green to linear peptides of protein X1 of SARS-CoV Urbani” value [1] was 0.2. The “Binding of serum SARS-green to looped/cyclic peptides of protein X1 of SARS-CoV Urbani” value [1] was 0.2, the “Binding of serum SARS-yellow to linear peptides of protein X1 of SARS-CoV Urbani” value [1] was 0.3 and the “Binding of serum SARS-yellow to looped/cyclic peptides of protein X1 of SARS-CoV Urbani” value [1] was 0.4. For the same sequence, the “Binding of Control Serum Blood-Bank to Looped peptides” value [2] was 0.4, the “Binding of Control serum Blood-bank to linear peptides” value [2] was 0.4 and the “Binding of Control serum LUMC to linear peptides” value [2] was 0.8. The “Binding of Control serum LUMC to looped peptides” value [2] was 0.6, the “Binding of a rabbit serum to linear peptides” value [3] was 0.1 and the “Binding of a rabbit serum to looped peptides” value [3] was 0.7.

For RARSVSPKLFIRQEE, the “Binding of serum 1a to linear peptides of protein X4 of SARS-CoV Urbani” value [1] was 0.8, the “Binding of serum 1a to looped/cyclic peptides of protein X4 of SARS-CoV Urbani” value [1] was 0.8 and the “Binding of serum 1b to linear peptides of protein X4 of SARS-CoV Urbani” value [1] was 0.6. For the same sequence, the “Binding of serum 1b to looped/cyclic peptides of protein X4 of SARS-CoV Urbani” value [1] was 0.7, the “Binding of serum 2 to linear peptides of protein X4 of SARS-CoV Urbani” value [1] was 0.4 and the “Binding of serum 2 to looped/cyclic peptides of protein X4 of SARS-CoV Urbani” value [1] was 0.6. The “Binding of serum 6 to linear peptides of protein X4 of SARS-CoV Urbani” value [1] was 0.6, the “Binding of serum 6 to looped/cyclic peptides of protein X4 of SARS-CoV Urbani” value [1] was 0.8 and the “Binding of serum 37 to linear peptides of protein X4 of SARS-CoV Urbani” value [1] was 0.7. For the same sequence, the “Binding of serum 37 to looped/cyclic peptides of protein X4 of SARS-CoV Urbani” value [1] was 0.7, the “Binding of serum 62 to linear peptides of protein X4 of SARS-CoV Urbani” value [1] was 0.8 and the “Binding of serum 62 to looped/cyclic peptides of protein X4 of SARS-CoV Urbani” value [1] was 0.7. For the same sequence, the “Binding of serum London to linear peptides of protein X4 of SARS-CoV Urbani” value [1] was 0.8, the “Binding of serum London to looped/cyclic peptides of protein X4 of SARS-CoV Urbani” value [1] was 0.5 and the “Binding of serum SARS-green to linear peptides of protein X4 of SARS-CoV Urbani” value [1] was 0.6. For the same sequence, the “Binding of serum SARS-green to looped/cyclic peptides of protein X4 of SARS-CoV Urbani” value [1] was 0.7, the “Binding of serum SARS-yellow to linear peptides of protein X4 of SARS-CoV Urbani” value [1] was 0.1 and the “Binding of serum SARS-yellow to looped/cyclic peptides of protein X4 of SARS-CoV Urbani” value [1] was 0.7. The “Binding of Control Serum Blood-Bank to Looped peptides” value [2] was 0.7, the “Binding of Control serum Blood-bank to linear peptides” value [2] was 0.6 and the “Binding of Control serum LUMC to linear peptides” value [2] was 0.5. For the same sequence, the “Binding of Control serum LUMC to looped peptides” value [2] was 0.8 and the “Recognition of the peptide by the rabbit serum” value [3] was “recognized”.

With RIGNYKLNTDHAGSN the “Binding of serum 1a to linear peptides of protein M of SARS-CoV Urbani” value [1] was 0.7, the “Binding of serum 1a to looped/cyclic peptides of protein M of SARS-CoV Urbani” value [1] was 0.6 and the “Binding of serum 1b to linear peptides of protein M of SARS-CoV Urbani” value [1] was 0.5. The “Binding of serum 1b to looped/cyclic peptides of protein M of SARS-CoV Urbani” value [1] was 0.5, the “Binding of serum 2 to linear peptides of protein M of SARS-CoV Urbani” value [1] was 0.6 and the “Binding of serum 2 to looped/cyclic peptides of protein M of SARS-CoV Urbani” value [1] was 0.5. The “Binding of serum 6 to linear peptides of protein M of SARS-CoV Urbani” value [1] was 0.3, the “Binding of serum 6 to looped/cyclic peptides of protein M of SARS-CoV Urbani” value [1] was 0.7 and the “Binding of serum 37 to linear peptides of protein M of SARS-CoV Urbani” value [1] was 0.5. The “Binding of serum 37 to looped/cyclic peptides of protein M of SARS-CoV Urbani” value [1] was 0.6, the “Binding of serum 62 to linear peptides of protein M of SARS-CoV Urbani” value [1] was 0.6 and the “Binding of serum 62 to looped/cyclic peptides of protein M of SARS-CoV Urbani” value [1] was 0.6. The “Binding of serum London to linear peptides of protein M of SARS-CoV Urbani” value [1] was 0.6, the “Binding of serum London to looped/cyclic peptides of protein M of SARS-CoV Urbani” value [1] was 0.4 and the “Binding of serum SARS-green to linear peptides of protein M of SARS-CoV Urbani” value [1] was 0.6. The “Binding of serum SARS-green to looped/cyclic peptides of protein M of SARS-CoV Urbani” value [1] was 0.2, the “Binding of serum SARS-yellow to linear peptides of protein M of SARS-CoV Urbani” value [1] was 0.1 and the “Binding of serum SARS-yellow to looped/cyclic peptides of protein M of SARS-CoV Urbani” value [1] was 0.6. The “Binding of Control Serum Blood-Bank to Looped peptides of the protein M of SARS-CoV Urbani” value [2] was 0.8, the “Binding of Control serum Blood-bank to linear peptides of the protein M of SARS-CoV Urbani” value [2] was 0.9 and the “Binding of Control serum LUMC to linear peptides of the protein M of SARS-CoV Urbani” value [2] was 0.6. The “Binding of Control serum LUMC to looped peptides of the protein M of SARS-CoV Urbani” value [2] was 0.8, the “Rabbit serum linear peptides” value [3] was 0.1 and the “Rabbit serum looped peptides” value [3] was 0.2.
